Test results: patent US20100240617A1, “BICYCLIC SPHINGOSINE 1-PHOSPHATE ANALOGS” (University of Virginia Patent Foundation, priority 2007, published 2010)

System: lymphocytes in blood
Assay: lymphopenia assay
Type: in vivo
Conditions: mice, 8 doses, 3 mice per dose
Method: Compounds (e.g., primary alcohols such as compound VIII) are dissolved in 2% hydroxypropyl beta-cyclodextrin and introduced into groups of mice by oral gavage at doses from 0.01, 1.0 and 10 mg/kg body weight. After 24 hours and 48 hours, the mice are lightly anesthetized and ca. 0.1 ml of blood is drawn from the orbital sinus. The number of lymphocytes (in thousands per microliter of blood; normal is 4-11) is determined using a Hemavet blood analyzer. There are three mice/group, the strain was mixed sv129×C57BL/6. Active compounds (e.g., compound VIII-C and compound VIII-D) are dissolved in acidified DMSO at 20 mM, and diluted 1:20 into 2% hydroxypropyl beta-cyclodextrin in water with mixing. […]

Row | SMILES | ED50 in the lymphopenia assay [mg/kg]
1 | CCCCCCCCc1ccc2c(c1)CCC(C(N)(CO)CO)C2 (single isomer, unassigned; (+)) [VIII-A, (+)-2-Amino-2-(6-octyl-1,2,3,4-tetrahydro-naphthalen-2-yl)-propane-1,3-diol] | 0.2
2 | CCCCCCCCc1ccc2c(c1)CCC(C(N)(CO)CO)C2 (single isomer, unassigned; (-)) [VIII-B, (−)-2-Amino-2-(6-octyl-1,2,3,4-tetrahydro-naphthalen-2-yl)-propane-1,3-diol] | 2
